Results from PubChem BioAssay (NCI).
Several values for one entry are separate records, joined by “and”; a condition that tells them apart may be missing. Equal entries are not always repeated.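 96-well plates; 48 h exposure; 5 concentrations. Endpoints by linear interpolation between flanking doses. Not reached: highest tested concentration assigned. GI50: concentration for 50% inhibition of growth. TGI: total growth inhibition.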

Key:
Experiment in all cases: DTP human tumour cell line panel, 48 h
[1] = tested on: IGROV1 ovarian
[2] = tested on: NCI-H522 lung
[3] = tested on: SNB-75 CNS
[4] = tested on: SW-620 colon
[5] = tested on: UACC-257 melanoma
[6] = tested on: UACC-62 melanoma
[7] = tested on: ACHN renal
[8] = tested on: LOX IMVI melanoma
[9] = tested on: MDA-MB-435
[10] = tested on: T-47D breast

| SMILES | GI50 [1] [µM] | TGI [1] [µM] | GI50 [2] [µM] | TGI [2] [µM] | GI50 [3] [µM] | TGI [3] | GI50 [4] [µM] | TGI [4] [µM] | GI50 [5] [µM] | TGI [5] [µM] | GI50 [6] [µM] | TGI [6] | TGI [7] | TGI [8] [µM] | TGI [9] [µM] | TGI [10] [µM] | GI50 [7] [µM] |
| --- | --- | --- | --- | --- | --- | --- | --- | --- | --- | --- | --- | --- | --- | --- | --- | --- | --- |
| CCCCCCOc1ccc(C(=N)N(CCCC)CCCC)c2ccccc12 | 1.34 | 2.86 | 0.61 | 2.07 | 1.19 | 2.46 µM | 1.52 | 3 | 1.6 | 3.06 | 1.6 | 3.23 µM | – | – | – | – | – |
| N#CCCC1(CCC#N)CCCCCCC(CCC#N)(CCC#N)C(O)C1O (stereo not drawn) | – | > 100 | – | > 100 | – | > 100 µM | – | > 100 | – | > 100 | – | – | > 100 µM | > 100 | > 100 | > 100 | – |
| CCN(CC)CCN(C)CCc1ccc(Br)cc1 | – | > 100 | – | > 100 | – | > 100 µM | – | > 100 | – | > 100 | – | – | > 100 µM | > 100 | > 100 | > 100 | – |
| CC1(C)COC(c2c(-c3ccccc3)noc2CS(=O)c2ccccc2)=N1 (stereo not drawn) | – | > 100 | – | > 100 | – | > 100 µM | – | > 100 | – | > 100 | – | 76.9 µM | > 100 µM | > 100 | – | – | – |
| Cc1ccc(S(=O)(=O)N/N=C2\C3CC4CC(C3)C2C4)cc1 (stereo not drawn) | – | > 100 | – | > 100 | – | > 100 µM | – | > 100 | – | > 100 | – | > 100 µM | – | > 100 | > 100 | > 100 | – |
| [N-]=[N+]=C(C(=O)C(=[N+]=[N-])C(=O)c1ccccc1)C(=O)c1ccccc1 | – | > 100 | – | > 100 | – | > 100 µM | – | > 100 | – | > 100 | – | > 100 µM | > 100 µM | > 100 | > 100 | – | – |
| OC12CCCCCC1(N1CCOCC1)c1ccccc12 (stereo not drawn) | – | > 100 | – | > 100 | – | > 100 µM | – | > 100 | – | > 100 | – | > 100 µM | > 100 µM | > 100 | – | – | – |
| CC(C)(C)CC(C)(C)c1ccc(OCCOCC[N+](C)(C)Cc2ccccc2)cc1 | – | – | – | 6.42 | 0.962 | 2.34 µM and 5.55 µM | – | 21 | – | 3.03 | 0.678 | 2.09 µM and 2.67 µM | 32.9 µM and 26.7 µM | – | – | – | 6.95 |
| C/C(=C\Cc1cc(O)ccc1O)CCc1c(C)cc(O)c(C=O)c1C | – | 50.5 | – | 23.6 | – | 77.4 µM | – | > 100 | – | – | – | – | 44.3 µM | – | – | – | – |
| CCOC1=C2NC(Cc3ccc(F)cc3)=NC2C(=O)c2ccccc21 (stereo not drawn) | – | > 100 | – | 46.1 | – | 55.1 µM | – | – | – | 50.8 | – | 63.3 µM | > 100 µM | 71.4 | – | – | – |
| Cc1cn([C@H]2[C@@H](CO)C[C@H]2O)c(=O)[nH]c1=O | – | > 100 | – | > 100 | – | > 100 µM | – | > 100 | – | > 100 | – | – | > 100 µM | > 100 | > 100 | – | – |
| COc1cccc(CN(C(=O)/C=C\Sc2ccccc2)C(C)(C)C)c1 | – | > 100 | – | – | – | – | – | > 100 | – | > 100 | – | > 100 µM | > 100 µM | > 100 | > 100 | > 100 | – |
| CC12CC(c3ccccc3O1)C(C(=O)Nc1cccc(F)c1)C(=O)N2 (stereo not drawn) | – | > 100 | – | > 100 | – | – | – | > 100 | – | > 100 | – | > 100 µM | > 100 µM | > 100 | > 100 | 89.2 | – |
| COc1ccc(-c2c3ccccc3c(-c3ccc(OCCCCCBr)cc3)c3ccccc23)cc1 | – | > 100 | – | > 100 | – | – | – | > 100 | – | – | – | > 100 µM | > 100 µM | > 100 | – | – | – |
| Cc1cc2occ(-c3ccc(Cl)cc3)c2c(=O)o1 | – | > 100 | – | > 100 | – | > 100 µM | – | > 100 | – | > 100 | – | > 100 µM | > 100 µM | > 100 | – | – | – |
| c1ccc(OCCSCCCCCCCCCCSCCOc2ccccc2)cc1 | – | > 100 | – | > 100 | – | > 100 µM | – | > 100 | – | > 100 | – | > 100 µM | > 100 µM | > 100 | – | – | – |
| O=C1CC2(CCNCC2)C(=O)N1N1CCOCC1 | – | > 100 | – | > 100 | – | > 100 µM | – | > 100 | – | > 100 | – | > 100 µM | > 100 µM | > 100 | – | > 100 | – |
| O=CNNC(=O)Nc1ccc(Cl)cc1 | – | > 100 | – | – | – | > 100 µM | – | > 100 | – | > 100 | – | > 100 µM | > 100 µM | – | > 100 | > 100 | – |
| CNc1ccc(S(=O)Nc2ccccc2)cc1 (stereo not drawn) | – | > 100 | – | 96.7 | – | – | – | > 100 | – | > 100 | – | 81.3 µM | > 100 µM | > 100 | > 100 | 49.5 | – |
| O=C1/C(=C\c2cccc(Oc3ccccc3)c2)SC(c2ccccc2)N1c1cccc([N+](=O)[O-])c1 (stereo not drawn) | – | – | – | > 100 | – | – | – | > 100 | – | > 100 | – | > 100 µM | > 100 µM | > 100 | > 100 | > 100 | – |
| CC(=O)Nc1ccc(C(=O)N2N=C(C)/C(=C/c3ccc(O)cc3)C2=O)cc1 | – | – | – | > 100 | – | > 100 µM | – | > 100 | – | > 100 | – | – | > 100 µM | > 100 | – | – | – |
| C=CCOC(=O)CCCCCCCCCCCCCCCOC(=O)C1=C(CCC[C@@H](C)O[Si](C)(C)C(C)(C)C)NC(=O)N2[C@H](CC3(CC/C=C\[C@H](CC)O[Si](C(C)C)(C(C)C)C(C)C)OCCO3)CC[C@H]12 | – | – | – | > 100 | – | > 100 µM | – | – | – | > 100 | – | > 100 µM | > 100 µM | – | > 100 | > 100 | – |
| Nc1c(N=Nc2ccc(-c3ccc(N=Nc4c(O)ccc5cc(S(=O)(=O)O)cc(S(=O)(=O)O)c45)cc3)cc2)c(S(=O)(=O)O)cc2cc(S(=O)(=O)O)c(N=Nc3ccccc3)c(O)c12 | – | > 100 | – | > 100 | – | 90.7 µM | – | > 100 | – | > 100 | – | > 100 µM | – | > 100 | – | – | – |
| O=C1CSc2nnc(CCCCCCCCc3nnc4n3NC(=O)CS4)n2N1 | – | > 100 | – | 75.2 | – | > 100 µM | – | > 100 | – | > 100 | – | > 100 µM | > 100 µM | – | > 100 | > 100 | – |
| CC(=O)O[C@H]1C(=O)N(c2cc3c4ccccc4ccc3c3ccccc23)[C@@H]1c1ccccc1 | – | 8.27 | – | – | – | 7.2 µM | – | – | – | > 100 | – | 24 µM | 89.2 µM | 33.1 | 5.68 | 98.6 | – |
